Laboratory results from US9290459B1, “Substituted bicyclic dihydropyrimidinones and their use as inhibitors of neutrophil elastase activity” (Boehringer Ingelheim International GmbH, priority 2013, dated 2016).
≈ marks a conversion by molar mass, not a printed value. Read-outs that look alike come from different tables or passages of the source.

Columns and labels:
[1] = molecular target: Human neutrophil elastase (Homo sapiens (Human), UniProt P08246); experiment: Human Neutrophil Elastase Assay; assay type: biochemical; settings: human neutrophil elastase, substrate MeOSuc-Ala-Ala-Pro-Val-AMC 250 μM, pH 7.5; read-out: IC50
[2] = molecular target: neutrophil elastase in human plasma (Homo sapiens (Human), UniProt P08246); experiment: Neutrophil elastase inhibitory activity in human plasma (zymosan-stimulated blood); assay type: biochemical; settings: neutrophil elastase enriched human plasma from zymosan-stimulated blood; read-out: EC50
[3] = Metabolic stability with human liver microsomes; assay type: in vitro ADME; settings: for half-life at 1 μM: pH 7.6
[4] = Drug transport across human Caco-2 cells; assay type: in vitro ADME; settings: human; for Papp A→B at 10 µM / Papp B→A at 10 µM: Caco-2, pH 7.2, Caco-2 monolayers, pH 7.2, 37° C.; for Papp A→B at 10 µM: apical-to-basal, read-out: PEAB; for Papp B→A at 10 µM: basal-to-apical, read-out: PEBA; for efflux ratio at 10 μM: Caco-2, pH 7.2, PEBA/PEAB, Caco-2
Source text: Assay for Determination of Drug Transport Across Human Caco-2 Cells The assay provides information on the potential of a compound to pass the cell membrane, on the extent of oral absorption as well as on whether the compound is actively transported by uptake and/or efflux transporters. […] The compounds are assigned to permeability/absorption classes by comparison of the AB permeabilities with the AB permeabilities of reference compounds with known in vitro permeability and oral absorption in the human. Identical or similar permeabilities in both transport directions indicate passive permeation, vectorial permeability points to additional active transport mechanisms. […] Active transport is concentration-dependently saturable. Caco-2 cells (1-2*10^5 cells/cm^2 area) are seeded on filter inserts (Costar transwell polycarbonate or PET filters, 0.4 nm pore size) and cultured (DMEM) for 10 to 25 days. […] The transport solution (TL) is applied ici to the apical or basolateral donor side for measuring A-B or B-A permeability (3 filter replicates), respectively. The receiver side contains HTP-4 buffer supplemented with 2% BSA. […] Sampled receiver volumes are replaced with fresh receiver solution.

[5] = Aqueous solubility; assay type: physicochemical; settings: McIlvaine buffer pH 6.8, 2.5% DMSO, 24 h shaking; for solubility at 24 h: McIlvaine buffer pH 6.8 with 2.5% DMSO, pH 6.8, aqueous buffer, kinetic from dmso stock
Protocol: Assay for Determination of Aqueous Solubility […] After 24 h of shaking, the solutions or suspensions are filtered and analyzed by LC-UV. The amount dissolved in buffer is compared to the amount dissolved in the acetonitrile/water (1/1) solution.

Chain of Human neutrophil elastase (P08246 30-247): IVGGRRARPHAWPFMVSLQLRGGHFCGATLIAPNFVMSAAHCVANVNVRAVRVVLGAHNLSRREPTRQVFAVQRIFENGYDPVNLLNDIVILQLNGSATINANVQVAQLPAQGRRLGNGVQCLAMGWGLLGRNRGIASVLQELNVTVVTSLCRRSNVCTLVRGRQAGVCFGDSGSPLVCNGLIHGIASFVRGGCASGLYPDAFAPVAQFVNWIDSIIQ
Chain of neutrophil elastase in human plasma (P08246 30-247): as above

Compound | IC50 [1] | EC50 [2] | half-life at 1 μM ([3]; human, microsomes) | Papp A→B at 10 µM [4] | Papp B→A at 10 µM [4] | efflux ratio at 10 μM [4] | solubility at 24 h [5] | half-life at 1 μM ([3]; pooled human liver microsomes, 1 mg/ml protein, 1 μM test compound, 37° C., NADPH, read-out: t1/2 INVITRO) | t1/2 INVITRO ([3]; pooled human liver microsomes, 1 mg/ml protein, 1 μM test compound, 37° C., NADPH) | Aqueous solubility [5]
CNC(=O)N1C(=O)N(c2cccc(C(F)F)c2)C2=C(C(=O)CC2)C1c1ccc(C#N)cc1 (stereo not drawn) [Example 52.1] | 1.1 nM | < 1 nM | > 2.17 h | 57.1 ×10⁻⁶ cm/s | 58.3 ×10⁻⁶ cm/s | 1 | 41 µg/mL (≈ 93.9 µM) |  |  | 
CCOC(=O)N1C(=O)N(c2cccc(C(F)(F)F)c2)C2=C(C(=O)CC2)C1c1ccc(C#N)cc1 (stereo not drawn) [Example 31, Ethyl 4-(4-Cyanophenyl)-2,5-dioxo-1-(3-(trifluoromethyl)phenyl)-4,5,6,7-tetrahydro-1H-cyclopenta[d]pyrimidine-3(2H)-carboxylate] | 4.2 nM | 14 nM | > 2.17 h | 80.9 ×10⁻⁶ cm/s | 69.5 ×10⁻⁶ cm/s | 0.9 |  |  |  | 
CS(=O)(=O)c1cc(C#N)ccc1C1C2=C(CCC2=O)N(c2cccc(C(F)(F)F)c2)C(=O)N1CC(=O)O (stereo not drawn) [Example 19, 2-(4-(4-Cyano-2-(methylsulfonyl)phenyl)-2,5-dioxo-1-(3-(trifluoromethyl)phenyl)-6,7-dihydro-1H-cyclopenta[d]pyrimidin-3(2H,4H,5H)-yl)acetic acid] | 1.3 nM | 2 nM | > 2.17 h |  |  |  | 89 µg/mL (≈ 167 µM) |  |  | 
N#Cc1ccc(C2C3=C(CCC3=O)N(c3cccc(C(F)F)c3)C(=O)N2C(=O)NCCO)cc1 (stereo not drawn) [Example 52.3] | < 1 nM | < 1 nM | > 2.17 h |  |  |  | 91 µg/mL (≈ 195 µM) |  |  | 
CN(CCO)C(=O)CN1C(=O)N(c2cccc(C(F)(F)F)c2)C2=C(C(=O)CC2)C1c1ccc(C#N)cc1S(C)(=O)=O (stereo not drawn) [Example 21, 2-(4-(4-Cyano-2-(methylsulfonyl)phenyl)-2,5-dioxo-1-(3-(trifluoromethyl)phenyl)-6,7-dihydro-1H-cyclopenta[d]pyrimidin-3(2H,4H,5H)-yl)-N-(2-hydroxyethyl)-N-methyl-acetamide] | < 1 nM | 1 nM | > 2.17 h |  |  |  | 87 µg/mL (≈ 147 µM) |  |  | 
CNC(=O)N1C(=O)N(c2cccc(C(F)(F)F)c2)C2=C(C(=O)CC2)[C@H]1c1ccc(C#N)cc1F [Example 49A, (S)-4-(4-Cyano-2-fluorophenyl)-N-methyl-2,5-dioxo-1-(3-(trifluoromethyl)phenyl)-4,5,6,7-tetrahydro-1H-cyclopenta[d]pyrimidine-3(2H)-carboxamide] | < 1 nM | 4 nM | > 2.17 h | 83.1 ×10⁻⁶ cm/s | 64.8 ×10⁻⁶ cm/s | 0.8 |  |  |  | 
CCS(=O)(=O)N1C(=O)N(c2cccc(C(F)(F)F)c2)C2=C(C(=O)CC2)C1c1ccc(C#N)cc1 (stereo not drawn) [Example 35, 4-(3-(Ethylsulfonyl)-2,5-dioxo-1-(3-(trifluoromethyl)phenyl)-2,3,4,5,6,7-hexahydro-1H-cyclopenta[d]pyrimidin-4-yl)benzonitrile] | 2.7 nM | 7 nM | > 2.17 h | 56.9 ×10⁻⁶ cm/s | 73.8 ×10⁻⁶ cm/s | 1.3 |  |  |  | 
CC(C)(O)CNC(=O)N1C(=O)N(c2ccnc(C(F)(F)F)c2)C2=C(C(=O)CC2)C1c1ccc(C#N)cc1 (stereo not drawn) [Example 55, 4-(4-Cyanophenyl)-N-(2-hydroxy-2-methylpropyl)-2,5-dioxo-1-(2-(trifluoromethyl)-pyridin-4-yl)-4,5,6,7-tetrahydro-1H-cyclopenta[d]pyrimidine-3(2H)-carboxamide] | 6.1 nM | 3 nM | > 2.17 h |  |  |  |  |  |  | 
CN1C(=O)N(c2cccc(C(F)F)c2)C2=C(C(=O)CC2)[C@H]1c1ccc(C#N)cc1 [Example 26A, (R)-4-(1-(3-(Difluoromethyl)phenyl)-3-methyl-2,5-dioxo-2,3,4,5,6,7-hexahydro-1H-cyclopenta[d]pyrimidin-4-yl)benzonitrile] | 2.4 nM | 2 nM | > 2.17 h | 72 ×10⁻⁶ cm/s | 76 ×10⁻⁶ cm/s | 1.1 | 41 µg/mL (≈ 104 µM) |  |  | 
CS(=O)(=O)c1cc(C#N)ccc1[C@H]1NC(=O)N(c2cccc(C(F)F)c2)C2=C1C(=O)CC2 [Example 15.4A, (S)-4-(1-(3-(Difluoromethyl)phenyl)-2,5-dioxo-2,3,4,5,6,7-hexahydro-1H-cyclopenta[d]pyrimidin-4-yl)-3-(methylsulfonyl)benzonitrile] | 2.9 nM | 2 nM | > 2.17 h | 3 ×10⁻⁶ cm/s | 46 ×10⁻⁶ cm/s | 15 | 69 µg/mL (≈ 151 µM) |  |  | 
COC(=O)N1C(=O)N(c2cccc(C(F)(F)F)c2)C2=C(C(=O)CC2)[C@H]1c1ccc(C#N)cc1S(C)(=O)=O [Example 33, (S)-Methyl 4-(4-cyano-2-(methylsulfonyl)phenyl)-2,5-dioxo-1-(3-(trifluoromethyl)-phenyl)-4,5,6,7-tetrahydro-1H-cyclopenta[d]pyrimidine-3(2H)-carboxylate] | < 1 nM | < 1 nM | > 2.17 h | 9.08 ×10⁻⁶ cm/s | 71.2 ×10⁻⁶ cm/s | 7.8 | 43 µg/mL (≈ 80.6 µM) |  |  | 
CN1C(=O)N(c2ccnc(C(F)(F)F)c2)C2=C(C(=O)CC2)C1c1ccc(C#N)cc1S(C)(=O)=O (stereo not drawn) [Example 29, 4-(3-Methyl-2,5-dioxo-1-(2-(trifluoromethyl)pyridin-4-yl)-2,3,4,5,6,7-hexahydro-1H-cyclopenta[d]pyrimidin-4-yl)-3-(methylsulfonyl)benzonitrile] |  |  |  | 11.8 ×10⁻⁶ cm/s | 66.2 ×10⁻⁶ cm/s |  | 79 µg/mL (≈ 161 µM) | > 2.17 h |  | 
CC(C)(O)CNC(=O)N1C(=O)N(c2cccc(C(F)F)c2)C2=C(C(=O)CC2)C1c1ccc(C#N)cc1 (stereo not drawn) [Example 52.5] | < 1 nM | 1 nM | > 2.17 h | 4.45 ×10⁻⁶ cm/s | 62.7 ×10⁻⁶ cm/s | 14.1 | 70 µg/mL (≈ 142 µM) |  |  | 
CCNC(=O)N1C(=O)N(c2ccnc(C(F)(F)F)c2)C2=C(C(=O)CC2)C1c1ccc(C#N)cc1 (racemic) [Example 54.2] | 3.3 nM | < 1 nM |  |  |  |  |  |  | >2.17 h | 44 µg/mL
CS(=O)(=O)c1cc(C#N)ccc1[C@@H]1C2=C(CCC2=O)N(c2cccc(C(F)(F)F)c2)C(=O)N1C(=O)NC1CC1 [Example 47.4] | < 1 nM | < 1 nM | > 2.17 h | 7.74 ×10⁻⁶ cm/s | 85.5 ×10⁻⁶ cm/s |  | 19 µg/mL (≈ 34 µM) |  |  | 
CC(C)NC(=O)N1C(=O)N(c2cccc(C(F)(F)F)c2)C2=C(C(=O)CC2)[C@H]1c1ccc(C#N)cc1S(C)(=O)=O [Example 47.5] | < 1 nM | 1 nM | > 2.17 h | 19.2 ×10⁻⁶ cm/s | 86.7 ×10⁻⁶ cm/s |  | 16 µg/mL (≈ 28.5 µM) |  |  | 
CN1C(=O)N(c2cccc(C(F)(F)F)c2)C2=C(C(=O)CC2)C1c1ccc(C#N)cn1 (stereo not drawn) [Example 26.1] | 26.8 nM | 13 nM | > 2.17 h | 67.7 ×10⁻⁶ cm/s | 64.2 ×10⁻⁶ cm/s | 0.9 | 41 µg/mL (≈ 99.4 µM) |  |  | 
CCS(=O)(=O)c1cc(C#N)ccc1[C@H]1NC(=O)N(c2cccc(C(F)(F)F)c2)C2=C1C(=O)CC2 [Example 14A, (S)-4-(2,5-Dioxo-1-(3-(trifluoromethyl)phenyl)-2,3,4,5,6,7-hexahydro-1H-cyclopenta[d]pyrimidin-4-yl)-3-(ethylsulfonyl)benzonitrile] | 1.2 nM | 1 nM | > 2.17 h | 10.3 ×10⁻⁶ cm/s | 94.8 ×10⁻⁶ cm/s | 9.2 | 62 µg/mL (≈ 127 µM) |  |  | 
CCN1C(=O)N(c2cccc(C(F)(F)F)c2)C2=C(C(=O)CC2)C1c1ccc(C#N)cc1S(C)(=O)=O (stereo not drawn) [Example 24, 4-(3-Ethyl-2,5-dioxo-1-(3-(trifluoromethyl)phenyl)-2,3,4,5,6,7-hexahydro-1H-cyclopenta[d]pyrimidin-4-yl)-3-(methylsulfonyl)benzonitrile] | 1.6 nM | 2 nM | > 2.17 h | 62.5 ×10⁻⁶ cm/s | 85.6 ×10⁻⁶ cm/s | 1.4 |  |  |  | 
N#Cc1ccc([C@@H]2C3=C(CCC3=O)N(c3cccc(C(F)(F)F)c3)C(=O)N2C(=O)N[C@H]2CCC[C@@H]2O)cc1 [Example 45.4] |  |  | > 2.17 h | 38.1 ×10⁻⁶ cm/s | 77.2 ×10⁻⁶ cm/s | 2 | 28 µg/mL (≈ 53.4 µM) |  |  | 
CS(=O)(=O)N1C(=O)N(c2cccc(C(F)(F)F)c2)C2=C(C(=O)CC2)C1c1ccc(C#N)cc1Cl (stereo not drawn) [Example 37.2] | 9.3 nM | 17 nM |  | 84.9 ×10⁻⁶ cm/s | 99.8 ×10⁻⁶ cm/s | 1.2 |  |  |  | 
N#Cc1ccc(C2C3=C(CCC3=O)N(c3cccc(C(F)(F)F)c3)C(=O)N2C(=O)N[C@@H]2CCC[C@H]2O)cc1 (stereo partly drawn) [Example 42.3] |  |  | > 2.17 h | 36.2 ×10⁻⁶ cm/s | 86 ×10⁻⁶ cm/s | 2.4 | 20 µg/mL (≈ 38.1 µM) |  |  | 
